# The NIST ThermoML archive (doi:10.1016/j.jct.2015.09.005)
# Numbers after ± are expanded uncertainties.
# Details: Liquid, Gas chromatography
SMILES,vapor or sublimation pressure (298.15 K) [kPa],vapor or sublimation pressure (308.15 K) [kPa],vapor or sublimation pressure (318.15 K) [kPa],vapor or sublimation pressure (328.15 K) [kPa],vapor or sublimation pressure (338.15 K) [kPa],vapor or sublimation pressure (348.15 K) [kPa],vapor or sublimation pressure (350 K) [kPa]
CC1=COC(=O)[C@@H]2[C@@H]1CC[C@@H]2C,0.0012 ± 0.0001,0.0029 ± 0.0003,0.0066 ± 0.0007,0.014 ± 0.002,0.029 ± 0.003,0.056 ± 0.006,0.064 ± 0.006
CC1=COC(=O)[C@H]2[C@@H]1CC[C@@H]2C,0.00092 ± 9e-05,0.0022 ± 0.0002,0.005 ± 0.0005,0.011 ± 0.001,0.022 ± 0.002,0.045 ± 0.005,0.05 ± 0.005
